Test results taken from patent US9611457B2, “Triazine derivatives as differentiation catalysts” (TECHNISCHE UNIVERSITAET WIEN, priority 2011, dated 2017).

Tests used:
[1] = tested on: Atrial natriuretic factor (ANF) expression, C2C12 cells; assay: ANF test (ANF promoter luciferase reporter) in C2C12 cells; type: cell-based, murine; design: key to Evaluation (luminescence in relation to the blank): −: decrease of luminescence compared to the blank value; +: measurable increase; ++: at least 1.5-fold increase; +++: at least 2-fold increase; conditions: for Evaluation (luminescence in relation to the blank): C2C12 cells (*), compound 1 μM in DMSO, relative to DMSO blank
Description: (§1) Atrial natriuretic factor (ANF) or atrial natriuretic peptide (ANP) is a cyclic peptide hormone made up of 28 amino acids, which is predominantly emitted by the muscle cells (myocytes) of the atrium of the heart. It is stored in the atrium as a pro-hormone made of 126 amino acids and is cleaved by serine protease corine into an N-terminal part and the biologically active ANF, which is often used as a cardiac-specific marker protein. In cell differentiation measurements, i.e. in determining the extent to which certain cells have become “cardiac cell-like” by differentiation, often a reporter gene located downstream of the ANF gene is used, as it expression product is easier to detect than the concentration of ANF in a cellular culture, for example, a luciferase gene. Luciferase in an enzyme which catalyzes the oxidation of a luminescent substrate (luciferine). While that happens, light is emitted, and the intensity of that light is correlated with the expression level of ANF and can therefore serve as a measure of ANF expression.
(§2) Initial attempts of ANF expression screenings were performed with P19 cells, i.e. murine embryonal carcinoma cells obtained from the ATCC, or C2C12 cells, i.e. a murine myoblast cell line, as models. In preparation, a plasmid was first constructed by amplifying a gene fragment containing a rat ANF promoter region and subcloning it into the PCL3-BV luciferase reporter plasmid of Promega. The P19 cells were temporarily transfected with said plasmid and cultured in Modified Eagle's Medium alpha (MEM-α) with 7.5% neonatal calf serum and 2.5% fetal bovine serum at 37° C. under 5% CO2 in monolayers for 8 days, during which the medium was exchanged three times. The respective compounds were added at about 60% confluence in DMSO as solvents at a concentration of 1 μM or DMSO alone (as a blank). The luminescence of the samples was measured with a Perkin Elmer Victor V 1420 Multilabel Counter. Their increase or decrease in the presence of the compounds of formula (I) is given in Table 1 below in relation to the blank.
(§3) The evaluations have the following meanings: • − decrease of luminescence compared to the blank value; • + measurable increase; • ++ at least 1.5-fold increase; • +++ at least 2-fold increase; • * represents C2C12 cells; and • ** represents P19 cells.

[2] = tested on: Atrial natriuretic factor (ANF) expression, P19 cells; assay: ANF test (ANF promoter luciferase reporter) in P19 cells; type: cell-based, murine; design: key to Evaluation (luminescence in relation to the blank): −: decrease of luminescence compared to the blank value; +: measurable increase; ++: at least 1.5-fold increase; +++: at least 2-fold increase
Description: as §1, §2, §3

[3] = tested on: zebrafish embryos; conditions: literature (Peterson et al.); cited from earlier work

| SMILES | Evaluation (luminescence in relation to the blank) [1] | efficiency in ANF test, stated in words ([1]; C2C12 cells, 1 μM) | melting point [°C] | ANF expression level / efficiency, stated in words ([2]; ANF test, P19 cells (DTAB and summary statements also cover C2C12)) | Evaluation (luminescence in relation to the blank) ([2]; P19 cells (**), compound 1 μM in DMSO, 8 days culture, relative to DMSO blank) | influence on embryo development [3] |
| --- | --- | --- | --- | --- | --- | --- |
| COc1ccc(Nc2nc(Cl)nc(NCCCO)n2)cc1 [(2), 3-[4-chloro-6-(4-methoxyphenylamino)-1,3,5-triazin-2-ylamino]propan-1-ol] | ++* (at least 1.5-fold increase) | very good efficiency | 155 to 159 | – | – | – |
| O=C(O)c1cccc(Nc2nc(Oc3ccccc3)nc(Oc3ccccc3)n2)c1 [DTAB, 3-[(4.6-diphenoxy-1,3,5-triazin-2-yl)amino]benzoic acid, reference compound] | −* −** | – | – | substantially no changes in the ANF expression level were found, even a slight decrease | −* −** | substantial influence on the formation of the anterior-posterior (A-P) axis and organ development in embryos |
| COc1ccc(Nc2nc(Cl)nc(NCCO)n2)cc1 [Compound (1), 2-[4-chloro-6-(4-methoxyphenylamino)-1,3,5-triazin-2-ylamino]ethanol] | +* | – | 169 to 173 | – | – | – |
